Measured values as given in US7196074B2, “Methods of making, using and pharmaceutical formulations comprising 7α, 11β-dimethyl-17β-hydroxyestra-4, 14-dien-3-one and 17 esters thereof” (The United States of America as represented by the …, priority 2000, dated 2007).

Experiments:
Type in all cases: in vivo, Sprague-Dawley rats
ventral prostate weight [1] = experiment: Subcutaneous androgenic potency, ventral prostate weight assay in orchidectomized immature rats (injection daily for seven days); details: ventral prostate weight assay following subcutaneous administration; alcohol of G = 1.0 (assigned); value is for the free alcohol of the listed ester
Experimental: (§1) Immature (about 21-day-old) Sprague-Dawley rats were orchidectomized under anesthesia, and randomly assignee to groups of ten animals for each dose level of the active undergoing testing. Each active was dissolved in 10% ethanol/sesame oil and administered by gavage (oral) or subcutaneous injection each day for seven days beginning on the date of the orchidectomy. The animals were sacrificed 24 hours after the last dose, and the ventral prostate and seminal vesicles were excised, cleaned of fat and connective tissue, blotted on moist filter paper and weighed to the nearest 0.1 mg. Regression analysis was performed by conventional methods using a PROPHET data management system. Ventral prostate weight was used as the endpoint because it is the sensitive organ to androgenic stimulation.
as §1, with “by” for “by gavage (oral) or”, “mg. See, e.g., Hershberger, L. et al, Myotrophic Activity of 19-nortestosterone And Other Steroids Determined By Modified Levator And Muscle Method, Proc. Soc. Exptl. Bid. Med. 83 175–180 (1953).” for “mg.”, “system. See, e.g., Bliss, C., The Statistics of Bioassay (Academic Press, New York, 1952); Hollister, C., Nucleic Acids Res. 16 1873–75 (1988).” for “system.”
Immature (about 22-day-old) Sprague-Dawley male rats were orchidectomized under anesthesia, and randomly assignee to groups of ten animals for each dose level of the active undergoing testing. […] Illumination was controlled for 14 hour periods of light and 10 hours of darkness.
Each active was administered by subcutaneous injection of 0.6 mg of test material in aqueous suspending vehicle (ASV) and/or an oily vehicle (10% ethanol/sesame oil) on the day of surgery. Testosterone enanthate in sesame oil was used as a standard. The ventral prostate and seminal vesicles were excised, cleaned of fat and connective tissue, blotted on moist filter paper and weighed to the nearest 0.1 mg. Regression analysis was performed by conventional methods using a PROPHET data management system. Ventral prostate weight was used as the endpoint because it is the sensitive organ to androgenic stimulation.

ventral prostate weight [2] = experiment: Duration of androgenic activity after subcutaneous injection, ventral prostate weight over weeks in orchidectomized immature rats; details: for area under the curve (AUC, trapezoidal rule) of ventral prostate weight: 12 week period, FIG. 22
Experimental: as §1, with “was” for “was dissolved in 10% ethanol/sesame oil and”, “by” for “by gavage (oral) or”
Except for testosterone enanthate, each active was formulated in two different carriers: (1) an aqueous suspension and (2) in sesame oil. Testosterone enanthate was formulated using the sesame oil carrier only, because it exists as a liquid at room temperature and could not therefore be formulated as an aqueous suspension.
The carrier used to provide the aqueous suspension was formulated as follows: 1 g benzyl alcohol, 0.5 g sodium carboxylethyl cellulose 50, 0.376 g disodium hydrogen phosphate dihydrate, 1.495 g sodium dihydrogen phosphate dihydrate, with water for injection (WFI) being added to bring volume of the carrier up to 100 ml.
Each formulation was prepared at a concentration of 0.6 mg/0.2 ml.
Immature (about 21-day-old) Sprague-Dawley rats were orchidectomized under anesthesia, and randomly assignee to groups of 40 or more. Animals received a single subcutaneous injection of 0.6 mg of each ester in 0.2 ml of an aqueous suspending carrier and/or oily carrier (10% ethanol/90% sesame oil or ethyl oleate) on the date of the orchidectomy. In cases where the ester was not solid at room temperature, 10% ethanol/sesame oil or ethyl oleate was used as the carrier. In this example, the carrier used to provide the aqueous suspension was formulated as follows: 1 g benzyl alcohol, 0.5 g sodium carboxylethyl cellulose 50, 0.376 g disodium hydrogen phosphate dihydrate, 1.495 g sodium dihydrogen phosphate dihydrate, with water for injection (WFI) being added to bring volume of the carrier up to 100 ml.
Five animals from each group were sacrificed at weekly or biweekly intervals, and the ventral prostate and seminal vesicles were excised, cleaned of fat and connective tissue, blotted on moist filter paper and weighed to the nearest 0.1 mg.
Ventral prostate weight was used as the endpoint because it is the sensitive organ to androgenic stimulation. Regression analysis was performed by conventional methods using the PROPHET data management system previously identified.
Immature (about 21-day-old) Sprague-Dawley rats were orchidectomized under anesthesia, and randomly assignee to groups of 40 or more. Animals received a single subcutaneous injection of 0.6 mg of the undecanoate in 0.2 ml of an aqueous suspending carrier and/or oily carrier (10% ethanol/90% sesame oil containing 5 mg/ml chlorobutanol as a preservative, or ethyloleate) on the date of the orchidectomy. The enanthate ester was formulated using the 10% ethanol/sesame oil or ethyloleate carrier as a first standard, with the 10% ethanol/sesame oil carrier used as a second standard.
In this example, the carrier used to provide the aqueous suspension was formulated as follows: 1 g benzyl alcohol, 0.5 g sodium carboxylethyl cellulose 50, 0.376 g disodium hydrogen phosphate dihydrate, 1.495 g sodium dihydrogen phosphate dihydrate, with water for injection (WFI) being added to bring volume of the carrier up to 100 ml.
Immature (about 21-day-old) Sprague-Dawley rats were orchidectomized under anesthesia, and randomly assignee to groups of 40 or more. […] The enanthate ester was formulated using the 10% ethanol/sesame oil or ethyloleate carrier as a first standard, with the 10% ethanol/sesame oil carrier used as a second standard.

ventral prostate weight [3] = experiment: Oral androgenic potency, ventral prostate weight assay in orchidectomized immature rats (gavage daily for seven days); details: for oral androgenic activity, times as potent as methyltestosterone: gavage daily for 7 days in 10% ethanol/sesame oil (oily carrier), ventral prostate weight; for oral activity relative to methyltestosterone (potency ratio): oral administration, summary statement, standard methyltestosterone
Experimental: as §1, with “(oral)” for “(oral) or subcutaneous injection”, “mg. See, e.g., Hershberger, L. et al, Myotrophic Activity of 19-nortestosterone And Other Steroids Determined By Modified Levator And Muscle Method, Proc. Soc. Exptl. Biol. Med 83 175–180 (1953).” for “mg.”, “system. See, e.g., Bliss, C., The Statistics of Bioassay (Academic Press, New York, 1952); Hollister, C., Nucleic Acids Res. 16 1873–75 (1988).” for “system.”
as §1
Immature (about 21-day-old) Sprague-Dawley rats were orchidectomized under anesthesia, and randomly assignee to groups of ten animals for each dose level of the active undergoing testing. Four dosage forms were prepared. The first two forms constituted a solution of each active in 10% ethanol/sesame oil. The third and fourth dosage forms constituted a suspension of each active in an aqueous carrier (as described in Example 2, supra). These dosage forms were then administered by gavage (oral) to separate animal groups each day for seven days beginning on the date of the orchidectomy. Each carrier was also administered (alone) to separate groups of animals as a control. The animals were sacrificed 24 hours after the last dose, and the ventral prostate and seminal vesicles were excised, cleaned of fat and connective tissue, blotted on moist filter paper and weighed to the nearest 0.1 mg. See, e.g., Hershberger, L. et al, Myotrophic Activity of 19-nortestosterone And Other Steroids Determined By Modified Levator And Muscle Method, Proc. Soc. Exptl. Biol. Med. 83 175–180 (1953). Regression analysis was performed by conventional methods using a PROPHET data management system. See, e.g., Bliss, C., The Statistics of Bioassay (Academic Press, New York, 1952); Hollister, C., Nucleic Acids Res. 16 1873–75 (1988). Ventral prostate weight was used as the endpoint because it is the sensitive organ to androgenic stimulation.
Immature (about 21 day old) Sprague male rats were orchidectomized under anesthesia, and randomly assignee to groups often animals for each dose level of the active undergoing testing. Animals were maintained under standard conditions of housing and had free access to food and water. Illumination was controlled for 14 hour periods of light and 10 hours of darkness. Each active was dissolved in 10% ethanol/sesame oil and administered by gavage (oral) each day for seven days beginning on the date of the orchidectomy. […]

Structure (SMILES) | Androgenic Potency (activity of corresponding alcohol) (ventral prostate weight [1]) | oral activity relative to methyltestosterone (potency ratio) (ventral prostate weight [3]) | further results
CCCC[C@H]1CC[C@H](C(=O)O[C@H]2CC=C3[C@@H]4[C@H](C)CC5=CC(=O)CC[C@]5(C)[C@H]4CC[C@@]32C)CC1 [C, 7α-Methyl-14-dehydro-testosterone-17β-bucyclate] | 61.1 |  | 
CCCCCCCCCCC(=O)O[C@H]1CC=C2[C@H]3[C@H]([C@@H](C)C[C@@]21C)[C@H]1CCC(=O)C=C1C[C@H]3C [Compound IV, 7α,11β-dimethyl-17β-hydroxyestra-4,14-dien-3-one 17-undecanoate] |  |  | duration of activity on parenteral administration (summary in words) (ventral prostate weight [2]; parenteral administration, relative to other actives): not long-acting; oral androgenic activity, times as potent as methyltestosterone (ventral prostate weight [3]): about two to about nine times
C[C@@H]1CC2=CC(=O)CC[C@@H]2[C@@H]2[C@@H]1C1=CC[C@H](O)[C@@]1(C)C[C@@H]2C [Compound III, 7α,11β-dimethyl-17β-hydroxyestra-4,14-dien-3-one] |  | ~1.96 | 
CCCCCCCCCCC(=O)O[C@H]1CC[C@H]2[C@H]3[C@H]([C@@H](C)C[C@]12C)[C@H]1CCC(=O)C=C1C[C@H]3C |  | about twice | 
CCCC[C@H]1CC[C@H](C(=O)O[C@H]2CC=C3[C@H]4[C@H](CC[C@@]32C)[C@H]2CCC(=O)C=C2C[C@H]4C)CC1 [CDB-4327A, 7α-Methyl-14-dehydro-19-nortestosterone-17β-bucyclate, reference compound] |  |  | ventral prostate weight over time after single subcutaneous injection (in words) (ventral prostate weight [2]; 0.6 mg in 0.2 ml oily carrier, up to 20 weeks, FIG. 9): surprising stimulation of ventral prostate size over the entire 20-week observation period
CCCCC1CCC(C(=O)O[C@H]2CC=C3[C@H]4[C@H]([C@@H](C)C[C@@]32C)[C@H]2CCC(=O)C=C2C[C@H]4C)CC1 (stereo partly drawn) [Compound V, 7α,11β-dimethyl-17β-hydroxyestra-4,14-dien-3-one 17β-4-n-butylcyclohexanecarboxylate] |  |  | ventral prostate weight over time after single subcutaneous injection (in words) (ventral prostate weight [2]; 0.6 mg in 0.2 ml aqueous vehicle): most dramatic increases and maintenance of ventral prostate weight; AUC of ventral prostate weight, times greater than for testosterone enanthate in oily carrier (ventral prostate weight [2]; active in aqueous vehicle versus testosterone enanthate in sesame oil/oily carrier, single subcutaneous 0.6 mg): about 3 times; area under the curve (AUC, trapezoidal rule) of ventral prostate weight (ventral prostate weight [2]; single subcutaneous 0.6 mg in aqueous vehicle): 1521 mg-weeks; oral androgenic activity, times as potent as methyltestosterone (ventral prostate weight [3]): about six to about eighteen times
CCCC[C@H]1CC[C@H](C(=O)O[C@H]2CC[C@H]3[C@H]4[C@H](CC[C@]23C)[C@H]2CCC(=O)C=C2C[C@H]4C)CC1 [A, 7α-Methyl-19-nortestosterone-17β-bucyclate] | 8.1^3 |  | 
CCCCC1CCC(C(=O)O[C@H]2CC=C3[C@H]4[C@H]([C@@H](C)C[C@@]32C)[C@H]2CCC(=O)C=C2C[C@H]4C)CC1 (stereo partly shown) |  | at least about six times | 
CCCCCCC(=O)O[C@H]1CC[C@H]2[C@@H]3CCC4=CC(=O)CC[C@]4(C)[C@H]3CC[C@]12C [testosterone enanthate, reference compound] |  |  | area under the curve (AUC, trapezoidal rule) of ventral prostate weight (ventral prostate weight [2]; single subcutaneous 0.6 mg in oily carrier): 513 mg-weeks
CCCC[C@H]1CC[C@H](C(=O)O[C@H]2CC[C@H]3[C@H]4[C@H](CC[C@]23C)[C@H]2CCC(=O)C[C@@H]2C[C@H]4C)CC1 [B, 7α-Methyl-5α-dihydro-19-nortestosterone-17β-bucyclate] | 1.2 |  | 
CCCCC1CCC(C(=O)OC2CCCC3C4C(C)CC5=CC(=O)CCC5(C)C4CCC23C)CC1 [D, 7α-Methyl-D-homo-testosterone-17β-bucyclate] | 36.4–61.7^3 |  | 
CCCCCCCCCCC(=O)O[C@H]1CC=C2[C@H]3[C@H]([C@@H](C)C[C@@]21C)[C@H]1CCC(=O)C=C1C[C@H]3C |  | at least about twice | 
